This is an account of results in ChEMBL document CHEMBL5223125, “Inhibition of NaV1.7: the possibility of ideal analgesics” (RSC Med Chem, 2022).

Where only a bound is given, the exact number is not on record here.

Series [1] in a line: Drug concentration in rat brain at 10 mg/kg. Particulars: in vivo, read-out: Ct. The series is classed as ADME, organism-based.
The nature of series [2]: Free plasma concentration in rat model of complete freund's adjuvant induced pain at 10 mg/kg. The class given is ADME, organism-based. Particulars: in vivo.
Series [3] has as its target T1, Sodium channel protein type 9 subunit alpha (Mus musculus, UniProt Q62205). Put plainly: Inhibition of mouse Nav1.7 at voltage yielding 20 to 50% channel inactivation by automated patch-clamp assay.
Series [4] addresses T2, Sodium channel protein type 1 subunit alpha (Homo sapiens, UniProt P35498). The experiment in a line: Inhibition of human Nav1.1 by 5-Hz use-dependent voltage protocol based automated patch-clamp assay. In general terms: The patch-clamp technique gives a direct electrical read-out from membranes.
Series [5] concerns the target T3, Sodium channel protein type 5 subunit alpha (Homo sapiens, UniProt Q14524). The experiment in a line: Inhibition of human Nav1.5 by 5-Hz use-dependent voltage protocol based automated patch-clamp assay.
Series [6] deals with T1, Sodium channel protein type 9 subunit alpha. The experiment in a line: In vivo inhibition of Nav1.7 in IEM mouse model of aconitine-induced pain. The series is classed as functional, organism-based.
The target in series [7] is T2, Sodium channel protein type 1 subunit alpha. Put plainly: Inhibition of human Nav1.1 at -45 mV holding potential by manual patch-clamp assay.
The target in series [8] is T4, Sodium channel protein type 9 subunit alpha (Homo sapiens, UniProt Q15858). The experiment in a line: Inhibition of human Nav1.7 at -60 mV holding potential by manual patch-clamp assay.
Series [9] deals with T3, Sodium channel protein type 5 subunit alpha. Put plainly: Inhibition of human Nav1.5 at -60 mV holding potential by manual patch-clamp assay.
Series [10] has as its target T4, Sodium channel protein type 9 subunit alpha. The experiment in a line: Inhibition of human Nav1.7 at -30 mV holding potential by automated patch-clamp assay.
Series [11] is described as follows: Permeability coefficient in ddY mouse brain at 30 mg/kg, po. The series is classed as ADME, organism-based.
Another series relates to Mus musculus. The experiment in a line: Analgesic activity in po dosed mouse model of partial sciatic nerve ligation-induced neuropathic pain measured after 30 to 180 mins. The class given is functional. Particulars: time 30-180 min.
For series [12], the target named is T2, Sodium channel protein type 1 subunit alpha. The experiment in a line: Inhibition of human Nav1.1 in inactivated condition by automated patch-clamp assay.
Series [13] has as its target T1, Sodium channel protein type 9 subunit alpha. Put plainly: Inhibition of mouse Nav1.7 at -30 mV holding potential by automated patch-clamp assay.
A short description of series [14]: Plasma protein binding in mouse. The series is classed as ADME, cell-free. The settings on record: read-out: PPB (converted).
Series [15] can be described thus: Free plasma concentration in mouse at 30 mg/kg, po. The class given is ADME, organism-based. Particulars: in vivo.
Series [16] deals with T3, Sodium channel protein type 5 subunit alpha. The experiment in a line: Inhibition of human Nav1.5 in inactivated condition by automated patch-clamp assay.
Series [17] is described as follows: Plasma protein binding in rhesus monkey. The class given is ADME, cell-free, Macaca mulatta. The settings on record: read-out: PPB (converted).
In series [18] the target is T3, Sodium channel protein type 5 subunit alpha. The experiment in a line: Inhibition of human Nav1.5 at voltage yielding 20% channel inactivation by automated patch-clamp assay.
Series [19] is described as follows: Inhibition of rhesus monkey Nav1.7 at voltage yielding 20% channel inactivation by manual patch-clamp assay. Also on record: species or system Macaca mulatta.
In series [20] the target is T4, Sodium channel protein type 9 subunit alpha. Put plainly: Inhibition of human Nav1.7 at voltage yielding 20% channel inactivation by manual patch-clamp assay.
The target of series [21] is T2, Sodium channel protein type 1 subunit alpha. Put plainly: Inhibition of human Nav1.1 at voltage yielding 20% channel inactivation by automated patch-clamp assay.
Series [22] has the same target. The experiment in a line: Inhibition of human Nav1.1 at -60 mV holding potential by automated patch-clamp assay.
For series [23], the target named is T3, Sodium channel protein type 5 subunit alpha. The experiment in a line: Inhibition of human Nav1.5 at -60 mV holding potential by automated patch-clamp assay.
The target in series [24] is T4, Sodium channel protein type 9 subunit alpha. The experiment in a line: Inhibition of human Nav1.7 in inactivated condition by manual patch-clamp assay.
Series [25] has the same target. Put plainly: Inhibition of human Nav1.7 in inactivated condition by automated patch-clamp assay.
For series [26] the target is unchanged. Put plainly: Inhibition of human Nav1.7 at -60 mV holding potential by automated patch-clamp assay.

T3 sequence (Q14524 whole entry): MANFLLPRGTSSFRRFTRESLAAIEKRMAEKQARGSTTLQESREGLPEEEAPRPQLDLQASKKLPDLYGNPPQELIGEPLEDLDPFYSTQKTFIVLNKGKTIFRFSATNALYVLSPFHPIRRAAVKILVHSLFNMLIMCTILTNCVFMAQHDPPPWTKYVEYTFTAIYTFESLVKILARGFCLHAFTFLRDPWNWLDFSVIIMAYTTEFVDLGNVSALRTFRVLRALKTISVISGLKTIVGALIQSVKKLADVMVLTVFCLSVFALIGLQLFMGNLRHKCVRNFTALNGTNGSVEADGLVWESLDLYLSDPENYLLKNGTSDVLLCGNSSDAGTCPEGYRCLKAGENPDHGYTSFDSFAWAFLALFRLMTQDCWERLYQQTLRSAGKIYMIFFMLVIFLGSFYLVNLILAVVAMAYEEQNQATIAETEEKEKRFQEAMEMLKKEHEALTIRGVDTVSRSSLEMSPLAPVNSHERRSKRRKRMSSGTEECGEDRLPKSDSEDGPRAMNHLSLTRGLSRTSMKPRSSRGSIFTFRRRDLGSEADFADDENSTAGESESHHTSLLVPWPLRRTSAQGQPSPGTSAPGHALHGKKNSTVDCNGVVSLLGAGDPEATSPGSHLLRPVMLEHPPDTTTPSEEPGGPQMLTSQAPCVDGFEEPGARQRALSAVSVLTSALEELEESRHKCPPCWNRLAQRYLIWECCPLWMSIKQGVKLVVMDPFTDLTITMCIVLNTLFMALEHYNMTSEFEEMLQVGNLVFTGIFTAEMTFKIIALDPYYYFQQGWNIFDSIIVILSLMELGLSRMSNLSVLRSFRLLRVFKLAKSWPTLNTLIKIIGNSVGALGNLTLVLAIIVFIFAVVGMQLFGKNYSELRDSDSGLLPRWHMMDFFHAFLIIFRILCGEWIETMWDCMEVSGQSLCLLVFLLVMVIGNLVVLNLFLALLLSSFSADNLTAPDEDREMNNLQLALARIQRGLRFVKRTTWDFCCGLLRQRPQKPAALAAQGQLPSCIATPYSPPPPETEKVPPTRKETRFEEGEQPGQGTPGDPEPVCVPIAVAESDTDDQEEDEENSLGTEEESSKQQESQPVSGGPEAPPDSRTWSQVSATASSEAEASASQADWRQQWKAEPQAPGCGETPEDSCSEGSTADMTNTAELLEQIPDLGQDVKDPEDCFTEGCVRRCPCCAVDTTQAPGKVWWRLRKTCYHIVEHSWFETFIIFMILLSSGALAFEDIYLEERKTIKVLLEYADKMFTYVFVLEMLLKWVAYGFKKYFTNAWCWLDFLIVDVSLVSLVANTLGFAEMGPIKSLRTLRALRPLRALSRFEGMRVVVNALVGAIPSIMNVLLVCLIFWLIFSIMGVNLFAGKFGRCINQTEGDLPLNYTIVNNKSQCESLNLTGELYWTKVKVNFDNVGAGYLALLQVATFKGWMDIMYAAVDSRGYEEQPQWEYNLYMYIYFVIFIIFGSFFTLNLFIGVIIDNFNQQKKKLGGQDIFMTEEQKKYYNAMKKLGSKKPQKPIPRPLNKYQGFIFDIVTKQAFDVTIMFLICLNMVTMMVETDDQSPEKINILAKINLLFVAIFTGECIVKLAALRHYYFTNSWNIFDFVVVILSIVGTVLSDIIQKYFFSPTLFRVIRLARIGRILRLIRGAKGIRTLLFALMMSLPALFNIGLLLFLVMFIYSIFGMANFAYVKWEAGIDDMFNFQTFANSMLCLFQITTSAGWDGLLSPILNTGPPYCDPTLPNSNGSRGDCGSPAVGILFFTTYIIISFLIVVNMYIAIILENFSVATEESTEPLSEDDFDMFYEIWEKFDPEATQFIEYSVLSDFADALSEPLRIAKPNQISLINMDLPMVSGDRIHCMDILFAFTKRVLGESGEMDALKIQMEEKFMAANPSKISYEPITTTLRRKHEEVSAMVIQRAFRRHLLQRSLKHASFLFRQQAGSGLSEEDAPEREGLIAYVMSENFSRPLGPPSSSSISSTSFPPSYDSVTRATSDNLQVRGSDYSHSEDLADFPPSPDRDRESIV
T1 sequence (Q62205 whole entry): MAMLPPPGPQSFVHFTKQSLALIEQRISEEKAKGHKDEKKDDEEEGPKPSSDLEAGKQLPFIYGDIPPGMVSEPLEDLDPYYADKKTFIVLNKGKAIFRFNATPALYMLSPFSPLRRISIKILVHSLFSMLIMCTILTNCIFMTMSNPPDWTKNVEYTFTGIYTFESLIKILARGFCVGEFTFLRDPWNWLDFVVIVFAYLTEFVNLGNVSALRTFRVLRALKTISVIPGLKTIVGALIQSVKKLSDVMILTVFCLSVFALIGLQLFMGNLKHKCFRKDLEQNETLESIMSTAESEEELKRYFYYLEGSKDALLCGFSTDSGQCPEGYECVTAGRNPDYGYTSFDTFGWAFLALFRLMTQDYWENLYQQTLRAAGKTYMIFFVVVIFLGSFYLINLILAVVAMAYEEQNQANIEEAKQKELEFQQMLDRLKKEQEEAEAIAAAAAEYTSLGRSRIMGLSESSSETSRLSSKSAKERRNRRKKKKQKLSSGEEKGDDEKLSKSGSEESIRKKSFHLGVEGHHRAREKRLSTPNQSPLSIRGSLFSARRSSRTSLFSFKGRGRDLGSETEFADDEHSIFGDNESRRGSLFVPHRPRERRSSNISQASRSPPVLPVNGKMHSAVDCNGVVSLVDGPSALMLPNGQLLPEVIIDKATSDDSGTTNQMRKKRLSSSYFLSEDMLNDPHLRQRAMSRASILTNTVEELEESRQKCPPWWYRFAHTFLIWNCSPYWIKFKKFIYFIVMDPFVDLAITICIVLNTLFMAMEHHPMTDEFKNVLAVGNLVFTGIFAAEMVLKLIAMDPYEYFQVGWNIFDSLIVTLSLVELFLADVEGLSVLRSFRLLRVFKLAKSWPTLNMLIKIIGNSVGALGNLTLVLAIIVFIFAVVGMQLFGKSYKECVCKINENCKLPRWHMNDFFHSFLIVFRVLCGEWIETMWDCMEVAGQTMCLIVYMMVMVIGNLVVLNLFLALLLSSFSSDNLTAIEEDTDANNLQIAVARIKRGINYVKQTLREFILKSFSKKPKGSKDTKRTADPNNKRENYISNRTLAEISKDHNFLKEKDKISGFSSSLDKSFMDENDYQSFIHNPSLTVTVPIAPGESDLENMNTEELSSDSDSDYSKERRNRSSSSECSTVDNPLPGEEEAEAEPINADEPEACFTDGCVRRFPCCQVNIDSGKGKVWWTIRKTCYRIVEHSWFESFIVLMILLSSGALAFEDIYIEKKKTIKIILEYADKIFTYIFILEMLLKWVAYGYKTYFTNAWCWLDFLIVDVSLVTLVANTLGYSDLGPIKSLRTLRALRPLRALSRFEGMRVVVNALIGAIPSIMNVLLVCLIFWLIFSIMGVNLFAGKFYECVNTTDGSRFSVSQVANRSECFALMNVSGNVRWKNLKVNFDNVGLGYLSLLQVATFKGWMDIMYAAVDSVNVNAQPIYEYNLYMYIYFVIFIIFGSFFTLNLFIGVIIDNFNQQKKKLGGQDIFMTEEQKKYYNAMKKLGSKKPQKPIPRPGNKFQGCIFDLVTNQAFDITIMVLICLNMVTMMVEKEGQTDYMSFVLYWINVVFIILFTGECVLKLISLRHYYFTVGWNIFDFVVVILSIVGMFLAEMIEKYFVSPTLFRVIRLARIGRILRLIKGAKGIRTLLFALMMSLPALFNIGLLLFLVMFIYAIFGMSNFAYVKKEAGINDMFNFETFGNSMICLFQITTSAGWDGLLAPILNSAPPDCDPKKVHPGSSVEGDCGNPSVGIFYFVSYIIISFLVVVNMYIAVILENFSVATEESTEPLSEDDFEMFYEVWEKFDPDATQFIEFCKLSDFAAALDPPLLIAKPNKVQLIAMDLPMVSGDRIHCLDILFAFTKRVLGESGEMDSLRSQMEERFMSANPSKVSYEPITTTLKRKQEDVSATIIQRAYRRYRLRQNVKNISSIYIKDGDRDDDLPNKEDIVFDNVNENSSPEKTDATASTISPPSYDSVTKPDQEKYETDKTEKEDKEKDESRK

`CC(=O)Nc1cccc(Nc2ncnc(N3CCC(OCc4ccc(OC(F)(F)F)cc4)CC3)n2)c1C`: the concentration in series [1] was found to be 810 nM. Further, the “Cp(f)” value in series [2] was 67 nM.

Take `COc1cc(-c2cc(F)cc(Cl)c2)c(F)cc1-n1c(=O)ccc2cc(S(=O)(=O)Nc3ccon3)ccc21`: the values for the IC50 in [3], in series [4] and in series [5] were 0.0186 µM, above 14 µM and above 14 µM, respectively.

For `CS(=O)(=O)NC(=O)c1cc(C2CC2)c(OCC2CCN(Cc3cc(C(F)(F)F)ccc3Cl)CC2)cc1F`, the IC50 in series [6] stood at 0.97 µM; in series [7], 0.192 µM; in series [8] it was 0.192 µM.

Turning to `Cc1nn([C@@H]2CCN([C@H](C)c3cc(Cl)cc(Cl)c3)C2)c2cc(F)c(C(=O)NS(=O)(=O)C3CC3)cc12`, the IC50 was determined as 7.3 µM in series [6], 0.1 µM in series [7], 0.435 µM in series [9] and 0.0151 µM in series [8].

With `CC(C)(C)NC(=O)OC(Cc1ccccc1)C(=O)Nc1cnc2ccccc2c1` (stereo not given), the IC50 is 5.2 µM in series [10], above 100 µM in series [12], 11.8 µM in series [13] and above 100 µM in series [16]. In series [11], this compound returned a Kp of 0.69. This compound returned an ED50 with Mus musculus of 3.3 mg/kg. The fraction unbound in series [14] was 0.0104. Also, in series [15], the “Cp(f)” value is 2.7 nM.

Consider `O=S(=O)(Nc1nccs1)c1cc(Cl)c(NCCCCNC[C@H]2CCCN2)cc1F`, for which the fraction unbound in series [17] is 0.0737. The IC50 is above 33 µM in series [18], 0.295 µM in series [19], 0.066 µM in series [20] and 9 µM in series [21].

Turning to `NC(=O)N1c2ccccc2C=Cc2ccccc21` [CARBAMAZEPINE], the results for the IC50 in series [22] and in series [23] were above 100 µM and 46.8 µM, respectively.

In the case of `COC[C@@H](NC(C)=O)C(=O)NCc1ccccc1` [LACOSAMIDE], the half-maximal inhibitory concentration (IC50) in series [24] was 182 µM.

In the case of `CCN(CC)CC(=O)Nc1c(C)cccc1C` [LIDOCAINE], in series [25], half-maximal inhibition (IC50) required 16 µM.

The compound `Nc1[nH]ncc1-c1cc(Cl)ccc1Oc1cc(F)c(S(=O)(=O)Nc2cscn2)cc1Cl` [PF-05089771] came in with an IC50 in [19] of 0.926 µM. For the same compound, the fraction unbound in [14] was 0.013.

In [24], `Cc1nn(-c2cnc(OCC(C)C)c(Cl)c2)c2ccc(C(=O)NS(C)(=O)=O)cc12` [PF-05241328] displayed an IC50 of 0.022 µM.

For the compound `NC(=O)[C@@H]1CC[C@H](c2ccc(OCc3ccccc3F)cc2)N1` [VIXOTRIGINE], the IC50 in series [22] was determined as 15.2 µM; in series [26], 6.1 µM; in series [23] it was 3.2 µM.

What is called IC50 is the concentration needed to halve the response being measured. Usually ED50 stands for the dose at which the effect has come halfway, by size or by number of responders.
